Patent publication EP2608671B1, “COMPOUNDS FOR TREATMENT OF CANCER” (Gtx, Inc., priority 2010, dated 2012)
Like-named read-outs stand apart in the source and are kept apart here.

Tests used:
A375 = assay: SRB cell growth inhibition (cytotoxicity) assay; assay type: cell-based, human; settings: Homo sapiens
[1] = system: A375 human melanoma xenograft; assay: In vivo antitumor efficacy, A375 melanoma xenograft; parameters: species or system mouse; settings: 2k 15 mg/kg i.p.
Method: DTIC at 60 mg/kg was used as a positive control again.
(§1) PC-3 and A375 tumor xenograft studies.
(§2) In vivo antitumor activity [tumor growth inhibition (% T/C), tumor growth delay (T-C value), and tumor cell kill (total log cell kill)].

WM-164 = assay: SRB cell growth inhibition (cytotoxicity) assay; assay type: cell-based, human; settings: Homo sapiens
PC-3 cells = assay: In vivo drug resistance study (cells dissociated from PC-3 xenografts); assay type: cell-based; settings: Homo sapiens
[2] = for CL (mL/min/kg), systemic clearance / Vss (L/kg), volume of distribution: […] (1h, 2r), 5 mg/kg (5Ha, 5Hc)
[3] = system: tubulin (colchicine, vinblastine and paclitaxel binding sites); assay: MS competitive binding assay
From the text: MS competition binding assay. […] Each reaction was run in triplicate.

PPC-1 = assay: cells; settings: Homo sapiens, PPC-1, 96 h, read-out: IC50 ± SEM (nM), PPC-1
[4] = Rotarod test (in vivo neurotoxicity); settings: mouse
OVCAR-8 = assay: SRB growth inhibition, MDR model parent line; assay type: cell-based, human; settings: Homo sapiens, OVCAR-8; Table 5A; read-out: IC50 (nM), OVCAR-8
LNCaP = assay: cells; settings: Homo sapiens, 96 h, read-out: IC50 ± SEM (nM), LNCaP
B16-F1 = assay: SRB cell growth inhibition (cytotoxicity) assay; assay type: cell-based, mouse; settings: Mus musculus
From the text: (§3) The only compounds which belong to the invention are the ones falling under the scope of formula (XI).

Bovine brain tubulin = assay: In vitro tubulin polymerization assay; assay type: biochemical; settings: 10 µM
From the text: (§4) In Vitro Tubulin Polymerization Assay.
as §4
In vitro microtubule polymerization assay.

PC-3 = assay: cells; settings: Homo sapiens, PC-3, 96 h, read-out: IC50 ± SEM (nM), PC-3
From the text: as §3
Cells were stained with SRB solution.
Cells. […] Cells between the third and fifth passages were used for experiments.
Cell growth inhibition studies. […] Cells were stained with sulphorhodamine B (SRB) solution.

in vivo [5] = settings: mouse, ip
[6] = system: PC-3 prostate tumor xenograft; assay: In vivo antitumor efficacy, PC-3 xenograft; parameters: species or system mouse; settings: control 680 mm^3
From the text: as §1, §2

DU 145 = assay: cells; settings: Homo sapiens, DU-145, 96 h
[7] = system: melanoma cell lines (A375, WM-164, B16-F1) and prostate cancer cell lines (LNCaP, DU 145, PC-3, PPC-1); assay: SRB cytotoxicity, melanoma and prostate cell panel (averages); assay type: cell-based; settings: Prostate cell
From the text: as §3

NCI/ADR-RES = assay: SRB growth inhibition, P-gp over-expressing MDR line; assay type: cell-based, human; settings: NCI/ADR-RES vs OVCAR-8; 5760 min
[8] = PBS pH 7.4; Figure 18; 90 min
in vivo [9] = settings: rat, plasma, po, 10 mg/kg
MDA-MB-435/LCC6MDR1 = assay: SRB growth inhibition, multidrug-resistant melanoma line; assay type: cell-based; settings: MDA-MB-435/LCC6 MDR1, read-out: IC50 ± SEM (nM) (n=3), MDA-MB-435/LCC6MDR1; multidrug-resistant melanoma cell line
MDA-MB-435 = assay: SRB growth inhibition, sensitive parent melanoma line; assay type: cell-based; settings: Homo sapiens, MDA-MB-435, read-out: IC50 ± SEM (nM) (n=3), MDA-MB-435; sensitive parent melanoma cell line
[10] = A-375, read-out: IC50 ± SEM (nM) (n=3), A375, Table 14A
[11] = A-375, A375 melanoma cells, 48 h, SRB, read-out: IC50 ± SEM (nM) A375
[12] = B16-F1, read-out: IC50 ± SEM (nM) (n=3), B16-F1, Table 14A
[13] = B16-F1 melanoma cells, 48 h, SRB, read-out: IC50 ± SEM (nM) B16-F1
[14] = read-out: IC50 ± SEM (nM) Du 145

SMILES | CL (mL/min/kg), systemic clearance ([2]; rat, IV) [mL/min/kg] | Vss (L/kg), volume of distribution ([2]; rat, IV) [L/kg] | IC50 (PPC-1) [nM] | IC50 (LNCaP) [nM] | IC50 (PC-3) [nM] | IC50 (A375; [10]) [nM] | IC50 (A375; [11]) [nM] | IC50 (MDA-MB-435/LCC6MDR1) [nM] | IC50 (MDA-MB-435) [nM] | IC50 (B16-F1; [12]) [nM] | IC50 (B16-F1; [13]) [nM] | IC50 (DU 145; [14]) [nM] | further results
COc1cc(C(=O)c2csc(-c3ccccc3)n2)cc(OC)c1OC [1h, (2-Phenyl-thiazol-4-yl)-(3,4,5-trimethoxy-phenyl)-methanone] | 7.7 ± 1.0 | 4.9 ± 1.9 | 43 ± 5 | 28 ± 4 | 21 ± 1 | – | – | – | – | – | – | – | IC50 (A375; A-375, 96 h, SRB assay, 96 h, Tables 1, 2, 3, 5B, 5C, read-out: IC50 ± SEM (nM), A375): 28 ± 5 nM; % T/C ([1]; A375, 1h 20 mg/kg): 28%; tumor volume ([1]; A375, nude mice, 1h 20 mg/kg, 34 days, control 2183 mm^3): 775 mm^3; IC50 (WM-164; WM164, 96 h, SRB assay, 96 h, Table 2, read-out: IC50 ± SEM (nM), WM-164): 64 ± 4 nM; IC50 (PC-3 cells; PC-3, PC-3 cells from ATCC): 29.1 ± 1.1 nM; IC50 (PC-3 cells; PC-3, dissociated cells from 1h treated tumors (15 mg/kg, 21 days)): 30.4 ± 0.5 nM; IC50 (PC-3 cells; PC-3, dissociated cells from vehicle treated tumors): 29.1 ± 0.8 nM; RatPK_IV5mgk_Cl ([2]; rat, IV, 2.5mpk): 7.7 (2.5mpk) mL/min/kg; volume of distribution ([2]; rats, […] iv): 7.6 L/kg; clearance ([2]; rats, […] iv, Table 22): 6 mL/min/kg; competition for tubulin binding sites [3]: specifically competed with colchicine binding to tubulin; time on the rotating rod versus vehicle group [4]: no significant difference; IC50 (OVCAR-8): 35 ± 2 nM; IC50 (B16-F1; B16-F1, SRB assay, Tables 1, 2, 3, 5B, 5C, read-out: IC50 ± SEM (nM), B16-F1): 55 ± 5 nM; inhibited tubulin polymerization (Bovine brain tubulin; 15 min, Figure 28B): 90%; tubulin polymerization inhibited (Bovine brain tubulin; 20 min incubation, compared to vehicle): 47%; MTD at 96 h (in vivo [5]): ≥ 30 mg/kg; Tumor volume by day 21 ([6]; PC-3, 5 mg/kg i.p.): 370 mm^3; Tumor volume by day 21 ([6]; PC-3, 15 mg/kg i.p.): 176 mm^3; IC50 (DU 145; read-out: IC50 ± SEM (nM), DU 145): 71 ± 4 nM
COc1cc(C(=O)c2csc(-c3ccc(CN)cc3)n2)cc(OC)c1OC.Cl [2r, (2-(4-(Aminomethyl)phenyl)thiazol-4-yl)(3,4,5-trimethoxyphenyl)methanone hydrochloride] | 22 ± 13 | 0.33 ± 025 | – | – | – | – | – | – | – | – | – | – | IC50 ([7]; read-out: IC50 range over tested melanoma and prostate cell lines): 13 to 80 nM; Resistance factor (NCI/ADR-RES): 0.4; solubility in PBS [8]: over 35 µg/mL; bioavailability (in vivo [9]): 0.2%
COc1ccc(-c2nc(C(=O)c3ccc(F)cc3)cn2S(=O)(=O)c2ccccc2)cc1 [11cb, (4-fluorophenyl)(2-(4-methoxyphenyl)-1-(phenylsulfonyl)-1H-imidazol-4-yl)methanone] | – | – | 32 ± 0.7 | 31 ± 2 | 33 ± 2 | 36 ± 5 | 36 ± 5 | 30 | 38 | 71 ± 8 | 71 ± 8 | 52 ± 3 | IC50 ([7]; read-out: IC50 (average over cell lines)): 43 nM
O=C(c1ccc(F)cc1)c1cn(S(=O)(=O)c2ccccc2)c(-c2ccc(Cl)cc2)n1 [11fb, (2-(4-chlorophenyl)-1-(phenylsulfonyl)-1H-imidazol-4-yl)(4-fluorophenyl)methanone] | – | – | 54 ± 1 | 48 ± 1 | 76 ± 2 | 88 ± 9 | 88 ± 9 | 35 | 50 | 107 ± 12 | 107 ± 12 | 64 ± 1 | IC50 (WM-164; WM164, read-out: IC50 ± SEM (nM) (n=3), WM-164, Table 14A): 74 ± 8 nM; IC50 (WM-164; WM164 melanoma cells, 48 h, SRB, read-out: IC50 ± SEM (nM) WM164): 70 ± 6 nM
